From patent US20240279195A1, “SOLID STATE FORMS OF ABEXINOSTAT AND PROCESS FOR PREPARATION THEREOF” (TEVA PHARMACEUTICALS INTERNATIONAL GMBH, priority 2021, published 2024)

Test: solid state stability of the crystalline form upon heating, pressure, grinding and exposure to humidity
Format: physicochemical

Row | Substance | stability of the crystalline form
1 | Abexinostat fumarate [Form F3] | stable
2 | Abexinostat maleate [Form M1] | stable
3 | Abexinostat tosylate [Form T1] | stable
